Test results published in ChEMBL document CHEMBL6182856, “Novel one-/two-photon excited carbazole/quinolinium photosensitizers manifest nanomolar and hypoxia-resistant tumor photodynamic therapy by accelerating apoptosis, ferroptosis, and autophagy” (Eur J Med Chem, 2025).
Active and inactive are the calls of the source. The rule behind the calls is not given here.

Key:
A549 [1] = assay: Induction of ferroptosis in human A549 cells assessed as increase in lipid peroxidation by measuring increase in green fluorescence of the oxidized state measured upon irradiation by BODIPY 581/591C11 probe based confocal imaging analysis; assay type: functional, cell-based
[2] = Photosensitizing ability of the compound assessed as singlet oxygen production measured upon irradiation by electron spin resonance analysis; assay type: functional
A549 [3] = assay: Induction of apoptosis in human A549 cells assessed as viable cells measured upon light irradiation by AnnexinV-FITC/PI staining based flow cytometric analysis (reference value: 98.4%); assay type: functional
A549 [4] = assay: Induction of ferroptosis in human A549 cells assessed as increase in lipid peroxidation by measuring reduction in red fluorescence of the reduced state measured upon irradiation by BODIPY 581/591C11 probe based confocal imaging analysis; assay type: functional, cell-based
A549 [5] = assay: Induction of apoptosis in human A549 cells assessed as late apoptotic cells measured upon light irradiation by AnnexinV-FITC/PI staining based flow cytometric analysis (reference value: 0.15%); assay type: functional
[6] = Phototoxicity against mouse 4T1 cells assessed as inhibition of cell growth incubated for 24 hrs measured under normoxia conditions and after one-photon excitation upon irradiation with light at 520 nm, 200 mW/cm2 for 10 mins by MTT assay; assay type: functional, cell-based; conditions: 4T1, light or radiation study
[7] = Toxicity against mouse xenografted with human A549 cells assessed as changes in body weight administered intratumorally on day 0 and 7 and measured for 15 days; conditions: in vivo, other, 360 h, route it(Intratumoral), time 15 day
4T1 = assay: Phototherapeutic index, ratio of IC50 for cytotoxicity against mouse 4T1 cells measured under normoxia conditions to IC50 for phototoxicity against mouse 4T1 cells measured under normoxia conditions and after one-photon excitation upon irradiation with light at 520 nm, 200 mW/cm2 for 10 mins; assay type: functional
A549 [8] = assay: Induction of ROS generation in human A549 cells assessed as intracellular singlet oxygen level measured under normoxia conditions by SOSG probe based fluorescence analysis; assay type: functional, cell-based
A549 [9] = assay: Induction of mitochondrial damage in human A549 cells assessed as decrease in red fluorescence intensity measured upon light irradiation by JC-1 staining based fluorescence analysis; assay type: functional, cell-based
[10] = Phototherapeutic index, ratio of IC50 for cytotoxicity against human A549 cells measured under normoxia conditions to IC50 for phototoxicity against human A549 cells measured under normoxia conditions and after one-photon excitation upon irradiation with light at 520 nm, 200 mW/cm2 for 10 mins; assay type: functional
[11] = Photosensitizing ability of the compound in methanol assessed as singlet oxygen production by measuring quantum yield upon irradiation by DPBF based assay relative to KAKQ; assay type: functional
[12] = Phototoxicity against human A549 cells assessed as inhibition of cell growth incubated for 24 hrs measured under hypoxia conditions and after one-photon excitation upon irradiation with light at 520 nm, 200 mW/cm2 for 10 mins by MTT assay; assay type: functional, cell-based; conditions: A549, light or radiation study
[13] = Cytotoxicity against human HFL1 cells assessed as inhibition of cell growth incubated for 24 hrs by MTT assay; assay type: toxicity, cell-based
A549 [14] = assay: Induction of apoptosis in human A549 cells assessed as necrotic cells measured upon light irradiation by AnnexinV-FITC/PI staining based flow cytometric analysis (reference value: 1.04%); assay type: functional
[15] = Toxicity against mouse xenografted with human A549 cells assessed as changes in body weight administered intratumorally followed by exposure to light on day 0 and 7 and measured for 15 days; conditions: in vivo, other, 360 h, route it(Intratumoral), time 15 day
A549 [16] = assay: Induction of apoptosis in human A549 cells assessed as increase in cleaved caspase-3 expression measured upon light irradiation by western blot analysis relative to control; assay type: functional
A549 [17] = assay: Induction of apoptosis in human A549 cells assessed as necrotic cells measured under dark conditions by AnnexinV-FITC/PI staining based flow cytometric analysis (reference value: 0.031%); assay type: functional
[18] = Photosensitizing ability of the compound assessed as hydroxyl radical production measured upon irradiation by electron spin resonance analysis; assay type: functional
A549 [19] = assay: Induction of ferroptosis in human A549 cells assessed as increase in lipid peroxidation by measuring increase in green-to-red fluorescence ratio measured upon irradiation by BODIPY 581/591C11 probe based confocal imaging analysis relative to control; assay type: functional
[20] = Toxicity against mouse xenografted with human A549 cells assessed as changes in hematological indicators administered intratumorally on day 0 and 7 and measured on day 15; conditions: in vivo, other, 360 h, route it(Intratumoral), time 15 day
A549 [21] = assay: (§1) Photosensitizing ability of the compound in human A549 cells assessed as increase in intracellular ROS generation by measuring increase in fluorescence intensity measured upon light irradiation under normoxia conditions by DCFH-DA staining based fluorescence analysis relative to FLI in cells without irradiation; assay type: functional
[22] = Selectivity index, ratio of IC50 for cytotoxicity against human HFL1 cells measured under normoxia conditions to IC50 for phototoxicity against human A549 cells measured under normoxia conditions and after one-photon excitation upon irradiation with light at 520 nm, 200 mW/cm2 for 10 mins; assay type: toxicity, cell-based; conditions: HFL1 cells versus A549 cells, read-out: Ratio IC50
[23] = Phototherapeutic index, ratio of IC50 for cytotoxicity against human A549 cells measured under hypoxia conditions to IC50 for phototoxicity against human A549 cells measured under hypoxia conditions and after two-photon excitation upon irradiation with light at 808 nm, 200 mW/cm2 for 10 mins; assay type: functional
A549 [24] = assay: as §1, with “singlet oxygen” for “ROS”, “SOSG probe” for “DCFH-DA staining”; assay type: functional
A549 [25] = assay: Induction of autophagy in human A549 cells assessed as increase in Beclin-I expression measured upon light irradiation by western blot analysis relative to control; assay type: functional
A549 [26] = assay: Induction of apoptosis in human A549 cells assessed as late apoptotic cells measured under dark conditions by AnnexinV-FITC/PI staining based flow cytometric analysis (reference value: 0.17%); assay type: functional
[27] = Photostability of the compound measured after 30 mins of light irradiation by UV absorption based analysis; assay type: physicochemical; conditions: 0.5 h
A549 [28] = assay: In vivo photodynamic therapy based antitumor activity against human A549 cells xenografted in mouse assessed as tumor growth inhibition administered intratumorally followed by exposure to light on day 0 and 7 and measured on day 15; assay type: functional; conditions: route it(Intratumoral); time 15 day
[29] = Phototoxicity against human A549 cells assessed as inhibition of cell growth incubated for 24 hrs measured under hypoxia conditions and after two-photon excitation upon irradiation with light at 808 nm, 200 mW/cm2 for 10 mins by MTT assay; assay type: functional, cell-based; conditions: A549, light or radiation study
[30] = Phototherapeutic index, ratio of IC50 for cytotoxicity against human A549 cells measured under hypoxia conditions to IC50 for phototoxicity against human A549 cells measured under hypoxia conditions and after one-photon excitation upon irradiation with light at 520 nm, 200 mW/cm2 for 10 mins; assay type: functional
A549 [31] = assay: Induction of apoptosis in human A549 cells measured upon light irradiation by AnnexinV-FITC/PI staining based flow cytometric analysis relative to RuB; assay type: functional
A549 [32] = assay: as §1, with “superoxide” for “ROS”, “DHE probe” for “DCFH-DA staining”; assay type: functional
[33] = Phototherapeutic index, ratio of IC50 for cytotoxicity against human HT-29 cells measured under normoxia conditions to IC50 for phototoxicity against human HT-29 cells measured under normoxia conditions and after one-photon excitation upon irradiation with light at 520 nm, 200 mW/cm2 for 10 mins; assay type: functional
A549 [34] = assay: Induction of apoptosis in human A549 cells assessed as increase in Bax expression measured upon light irradiation by western blot analysis relative to control; assay type: functional

In the case of CCn1c2ccc(/C=C/c3cc[n+](C)c4ccccc34)cc2c2cc(N(c3ccccc3)c3ccccc3)ccc21.[I-], the Activity (A549 [1]) is reported as “Active”, the Activity [2] is reported as “Active” and the Activity (A549 [3]) is reported as 7.29%. For the same molecule, the Activity (A549 [4]) was “Active”, the Activity (A549 [5]) was 87.8% and the IC50 [6] was 51 nM. The Activity [7] was “Non-toxic”, the “Ratio IC50” value (4T1) was 21 and the Activity (A549 [8]) was “inactive”. The Activity (A549 [9]) was “Active”, the “Ratio IC50” value [10] was 54 and the fold change (FC) [11] was 3. For the same molecule, the IC50 [12] was 43 nM, the IC50 at 24 h [13] was 8910 nM and the Activity (A549 [14]) was 2.56%. For the same molecule, the Activity [15] was “Non-toxic”, the “fold change (FC)” value (A549 [16]) was 3 and the Activity (A549 [17]) was 0.85%. The Activity [18] was “Active”, the “fold change (FC)” value (A549 [19]) was 24 and the Activity [20] was “Non-toxic”. For the same molecule, the “fold change (FC)” value (A549 [21]) was 4, the selectivity ratio at 10 min [22] was 330 and the “Ratio IC50” value [23] was 10. For the same molecule, the “fold change (FC)” value (A549 [24]) was 4, the “fold change (FC)” value (A549 [25]) was 2 and the Activity (A549 [26]) was 30.7%. For the same molecule, the Stability [27] was “Stable”, the TGI (A549 [28]) was 90.7% and the IC50 [29] was 200 nM. The “Ratio IC50” value [30] was 46, the “fold change (FC)” value (A549 [31]) was 14 and the “fold change (FC)” value (A549 [32]) was 4. For the same molecule, the “Ratio IC50” value [33] was 51 and the “fold change (FC)” value (A549 [34]) was 5.
